Results published in patent US10093683B2, “Factor XIa inhibitors” (Merck Sharp & Dohme Corp., priority 2014, dated 2018).
Structures can show the parent of a compound that is named as a salt. Where two headings read alike, the source gives them in different places.

Molecular target: human Factor XIa (Homo sapiens (Human), UniProt P03951)
Assay: Factor XIa Assay
Type: biochemical
Settings: read-out: FXIa Ki
Procedure: The effectiveness of a compound of the present invention as an inhibitor of Coagulation Factor XIa can be determined using a relevant purified serine protease, and an appropriate synthetic substrate. The rate of hydrolysis of the chromogenic or fluorogenic substrate by the relevant serine protease was measured both in the absence and presence of compounds of the present invention. Assays were conducted at room temperature or at 37° C. […] A decrease in the rate of fluorescence change in the presence of inhibitor is indicative of enzyme inhibition. Such methods are known to one skilled in the art. The results of this assay are expressed as the inhibitory constant, Ki.
Factor XIa determinations were made in 50 mM HEPES buffer at pH 7.4 containing 150 mM NaCl, 5 mM CaCl2, and 0.1% PEG 8000 (polyethylene glycol; JT Baker or Fisher Scientific). Determinations were made using purified human Factor XIa at a final concentration of 40 pM (Sekisui Diagnostics) and he synthetic substrate, Z-Gly-Pro-Arg-AFC, TFA salt (Sigma #C0980) at a concentration of 100 μM.
Times required to achieve equilibration between enzyme and inhibitor were determined in control experiments. Initial velocities of product formation in the absence (Vo) or presence of inhibitor (Vi) were measured. Assuming competitive inhibition, and that unity is negligible compared Km/[S], [I]/e, and [I]/e (where [S], [I], and e respectively represent the total concentrations, of substrate, inhibitor and enzyme), the equilibrium constant (Ki) for dissociation of the inhibitor from the enzyme can be obtained from the dependence of Vo/Vi on [I] shown in the following equation.

[1] = purified human Factor XIa 40 pM, Z-Gly-Pro-Arg-AFC 100 μM, pH 7.4

human Factor XIa, sequence (P03951 388-625): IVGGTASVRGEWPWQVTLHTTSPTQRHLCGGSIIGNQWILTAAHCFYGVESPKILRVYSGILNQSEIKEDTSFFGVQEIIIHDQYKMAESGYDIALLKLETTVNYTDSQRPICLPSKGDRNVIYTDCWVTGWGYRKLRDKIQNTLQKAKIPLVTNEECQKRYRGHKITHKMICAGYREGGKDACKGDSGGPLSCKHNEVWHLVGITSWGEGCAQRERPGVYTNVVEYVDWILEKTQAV
human Factor XIa, sequence (P03951 19-387 partner): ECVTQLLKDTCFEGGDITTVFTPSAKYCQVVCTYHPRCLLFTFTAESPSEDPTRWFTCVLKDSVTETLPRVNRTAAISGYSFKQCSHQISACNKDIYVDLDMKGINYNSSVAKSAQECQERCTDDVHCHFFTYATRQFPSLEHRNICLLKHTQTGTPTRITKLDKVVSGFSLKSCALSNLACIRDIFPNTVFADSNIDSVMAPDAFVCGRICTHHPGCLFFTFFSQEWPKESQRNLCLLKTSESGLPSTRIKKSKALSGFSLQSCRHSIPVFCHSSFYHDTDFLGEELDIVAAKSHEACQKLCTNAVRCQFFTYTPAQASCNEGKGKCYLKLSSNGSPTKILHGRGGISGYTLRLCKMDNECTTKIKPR

Row | Ki [1] [nM] | Ki [nM] | Structure (SMILES)
1 |  | 367 | O=C1Nc2ccc(Cl)c(F)c2[C@@]2(CCCN(C(=O)[C@H](Cc3cccc(F)c3)NC(=O)c3ccc(C(=O)NCCP(=O)(O)O)cc3)C2)O1 [Example 273, (2-(4-(((S)-1-((R)-6-Chloro-5-fluoro-2-oxo-1,2-dihydrospiro[benzo[d][1,3]oxazine-4,3′-piperidin]-1′-yl)-3-(3-fluorophenyl)-1-oxopropan-2-yl)carbamoyl)benzamido)ethyl)phosphonic acid]
2 |  | 258 | O=C1Nc2ccc(Cl)c(F)c2[C@@]2(CCCN(C(=O)[C@H](Cc3ccccc3)NC(=O)c3ccc(-c4nc(=O)o[nH]4)cc3)C2)O1 [Example 232, N-((S)-1-((R)-6-chloro-5-fluoro-2-oxo-1,2-dihydrospiro[benzo[d][1,3]oxazine-4,3′-piperidin]-1′-yl)-1-oxo-3-phenylpropan-2-yl)-4-(5-oxo-2,5-dihydro-1,2,4-oxadiazol-3-yl)benzamide]
3 |  | 96 | Nc1n[nH]c2ccc(C(=O)N[C@@H](Cc3ccccc3)C(=O)N3CCC4(C3)OC(=O)Nc3ccc(Cl)cc34)cc12 (stereo partly shown) [Example 185]
4 |  | 72.2 | Nc1ccc(C(=O)N[C@@H](CC2CC2)C(=O)N2CCC[C@@]3(C2)OC(=O)Nc2ccc(Cl)cc23)cn1 [Example 205]
5 |  | 145 | O=C1CS(=O)(=O)c2cc(C(=O)N[C@@H](Cc3ccccc3)C(=O)N3CCC4(C3)OC(=O)Nc3ccc(Cl)cc34)ccc2N1 (stereo partly drawn) [Example 193, N-((2S)-1-(6-chloro-2-oxo-1,2-dihydrospiro[benzo[d][1,3]oxazine-4,3′-pyrrolidine]-1′-yl)-1-oxo-3-phenylpropan-2-yl)-3-oxo-3,4-dihydro-2H-benzo[b][1,4]thiazine-7-carboxamide 1,1-dioxide]
6 | 5000 |  | Nc1[nH]nc2c1CN(C(=O)N[C@@H](Cc1ccccc1)C(=O)N1CCC3(C1)OC(=O)Nc1ccc(Cl)cc13)C2 (stereo partly drawn) [Example 276, 3-amino-N-((2S)-1-(6-chloro-2-oxo-1,2-dihydrospiro[benzo[d][1,3]oxazine-4,3′-pyrrolidin]-1′-yl)-1-oxo-3-phenylpropan-2-yl)-4,6-dihydropyrrolo[3,4-c]pyrazole-5(2H)-carboxamide]
7 | 2400 |  | CO[C@@H]1C[C@@H](C(=O)N2CC[C@@]3(C2)OC(=O)Nc2ccc(Cl)cc23)N(C(=O)c2ccc3nc(N)sc3c2)C1 [Example 290, (R)-1′-((2S,4R)-1-(2-aminobenzo[d]thiazole-6-carbonyl)-4-methoxypyrrolidine-2-carbonyl)-6-chlorospiro[benzo[d][1,3]oxazine-4,3′-pyrrolidin]-2(1H)-one]
8 |  | 246 | N#Cc1n[nH]c2cc(C(=O)N[C@@H](Cc3ccccc3)C(=O)N3CC[C@@]4(C3)OC(=O)Nc3ccc(Cl)cc34)ccc12 [Example 218]
9 |  | 76.7 | O=C(Nc1ccc(C(=O)N[C@@H](Cc2ccccc2)C(=O)N2CCC3(C2)OC(=O)Nc2ccc(Cl)cc23)cc1)OCCN1CCNCC1 (stereo partly drawn) [Example 190, 2-(Piperazin-1-yl)ethyl (4-(((2S)-1-(6-chloro-2-oxo-1,2-dihydrospiro[benzo[d][1,3]oxazine-4,3′-pyrrolidin]-1′-yl)-1-oxo-3-phenylpropan-2-yl)carbamoyl)phenyl)carbamate 2 trifluoroacetic acid salt]

The remaining lines, values behind:

Row | Structure (SMILES) | Ki [1] [nM] | Ki [nM]
10 | COC(=O)Nc1ccc(-c2c[nH]c([C@H](Cc3ccccc3)C(=O)N3CC[C@]4(C3)OC(=O)Nc3ccc(Cl)cc34)n2)cc1 [Example 122b, methyl (4-(2-((S)-1-((S)-6-chloro-2-oxo-1,2-dihydrospiro[benzo[d][1,3]oxazine-4,3′-pyrrolidin]-1′-yl)-1-oxo-3-phenylpropan-2-yl)-1H-imidazol-4-yl)phenyl)carbamate] | 4690 | 
11 | COC(=O)Nc1ccc(C(=O)N[C@@H](Cc2ccccc2)C(=O)N2CCC3(C2)NC(=O)Nc2ccc(Cl)cc23)cc1 (single isomer, unassigned) [Example 19b] | 708 | 
12 | COC(=O)Nc1ccc(C(=O)N[C@@H](CC(=O)Nc2ccc(F)cc2)C(=O)N2CC[C@@]3(C2)OC(=O)Nc2ccc(Cl)cc23)cc1 [Example 91, methyl (4-(((S)-1-((R)-6-chloro-2-oxo-1,2-dihydrospiro[benzo[d][1,3]oxazine-4,3′-pyrrolidin]-1′-yl)-4-((4-fluorophenyl)amino)-1,4-dioxobutan-2-yl)carbamoyl)phenyl)carbamate] | 144 | 
13 | COC(=O)Nc1ccc(C(=O)NC(CC2CCS(=O)(=O)CC2)C(=O)N2CCC3(C2)OC(=O)Nc2ccc(Cl)cc23)cc1 (stereo not shown) [Example 42, methyl (4-((1-(6-chloro-2-oxo-1,2-dihydrospiro[benzo[d][1,3]oxazine-4,3′-pyrrolidin]-1′-yl)-3-(1,1-dioxidotetrahydro-2H-thiopyran-4-yl)-1-oxopropan-2-yl)carbamoyl)phenyl)carbamate] | 83.6 | 
14 | COC(=O)Nc1ccc(C(=O)N[C@@H](CC2CCC(F)(F)CC2)C(=O)N2CCC[C@@]3(C2)OC(=O)Nc2ccc(Cl)cc23)cc1 [Example 106, methyl (4-(((S)-1-((R)-6-chloro-2-oxo-1,2-dihydrospiro[benzo[d][1,3]oxazine-4,3′-piperidin]-1′-yl)-3-(4,4-difluorocyclohexyl)-1-oxopropan-2-yl)carbamoyl)phenyl)carbamate] | 16.8 | 
15 | COC(=O)Nc1ccc(C(=O)N[C@@H](Cc2ccccc2)C(=O)N2CCCCC3(C2)OC(=O)Nc2ccc(Cl)cc23)cc1 (stereo partly drawn) [Example 4, methyl (4-(((2S)-1-(6′-chloro-2′-oxo-1′,2′-dihydrospiro[azepane-3,4′-benzo[d][1,3]oxazin]-1-yl)-1-oxo-3-phenylpropan-2-yl)carbamoyl)phenyl)carbamate] | 4600 | 
16 | COC(=O)Nc1ccc(C(=O)N[C@@H](CC2CC2)C(=O)N2CC[C@]3(C2)OC(=O)Nc2ccc(Cl)cc23)cc1 [Example 21a, methyl (4-(((S)-1-((S)-6-chloro-2-oxo-1,2-dihydrospiro[benzo[d][1,3]oxazine-4,3′-pyrrolidin]-1′-yl)-3-cyclopropyl-1-oxopropan-2-yl)carbamoyl)phenyl)carbamate] | 726 | 
17 | COC(=O)Nc1ccc(C(=O)N[C@@H](Cc2ccccc2)C(=O)N2CC[C@@]3(C2)OC(=O)Nc2ccccc23)cc1 [Example 2, methyl (4-(((S)-1-oxo-1-((R)-2-oxo-1,2-dihydrospiro[benzo[d][1,3]oxazine-4,3′-pyrrolidin]-1′-yl)-3-phenylpropan-2-yl)carbamoyl)phenyl)carbamate] | 220 | 
18 | O=C1Nc2ccc(Cl)cc2C2(CCN(C(=O)[C@H](Cc3ccccc3)NC(=O)c3cnc4[nH]c(=O)oc4c3)C2)O1 (stereo partly shown) [Example 167] |  | 4160
19 | O=C1Nc2ccc(Cl)cc2C2(CCN(C(=O)[C@H](Cc3ccccc3)NC(=O)c3ccnc(O)c3)C2)O1 (stereo partly shown) [Example 155] |  | 169
20 | COC(=O)Nc1ccc(C(=O)NCC(=O)N2CCC3(C2)OC(=O)Nc2ccc(Cl)cc23)cc1 (racemic) [Example 23, methyl (4-((2-(6-chloro-2-oxo-1,2-dihydrospiro[benzo[d][1,3]oxazine-4,3′-pyrrolidin]-1′-yl)-2-oxoethyl)carbamoyl)phenyl)carbamate] | 248 | 
21 | Cc1nc(C(=O)N[C@@H](Cc2ccccc2)C(=O)N2CCC3(C2)OC(=O)Nc2ccc(Cl)cc23)co1 (stereo partly shown) [Example 146] |  | 5000
22 | N=C(N)Nc1ccc(C(=O)N[C@@H](Cc2ccccc2)C(=O)N2CCC3(C2)OC(=O)Nc2ccc(Cl)cc23)cc1 (stereo partly drawn) [Example 179, N-((2S)-1-(6-chloro-2-oxo-1,2-dihydrospiro[benzo[d][1,3]oxazine-4,3′-pyrrolidin]-1′-yl)-1-oxo-3-phenylpropan-2-yl)-4-guanidinobenzamide] |  | 454
23 | O=C1Nc2ccc(Cl)cc2C2(CCN(C(=O)[C@H](Cc3ccccc3)NC(=O)c3ccc4oc(=O)[nH]c4c3)C2)O1 (stereo partly shown) [Example 183] |  | 86.9
24 | O=C1Nc2ccc(Cl)cc2[C@]2(CCN(C(=O)[C@@H](Cc3ccccc3)C(=O)Nc3ccc(C(=O)O)cc3)C2)O1 [Example 121a, 4-((S)-2-benzyl-3-((S)-6-chloro-2-oxo-1,2-dihydrospiro[benzo[d][1,3]oxazine-4,3′-pyrrolidin]-1′-yl)-3-oxopropanamido)benzoic acid] | ≥ 5000 | 
25 | O=C1Nc2ccc(Cl)cc2C2(CCN(C(=O)[C@H](Cc3ccccc3)NC(=O)c3ccc4[nH]cnc4c3)C2)O1 (stereo partly shown) [Example 176] |  | 59.8
26 | COC(=O)Nc1ccc(C(=O)N[C@@H](CC(=O)N2CC(F)(F)C2)C(=O)N2CCC[C@@]3(C2)OC(=O)Nc2ccc(Cl)cc23)cc1 [Example 85, methyl (4-(((S)-1-((R)-6-chloro-2-oxo-1,2-dihydrospiro[benzo[d][1,3]oxazine-4,3′-piperidin]-1′-yl)-4-(3,3-difluoroazetidin-1-yl)-1,4-dioxobutan-2-yl)carbamoyl)phenyl)carbamate] | 33.3 | 
27 | COC(=O)Nc1ccc(C(=O)N[C@@H](CCS(C)(=O)=O)C(=O)N2CCC[C@@]3(C2)OC(=O)Nc2ccc(Cl)cc23)cc1 [Example 59, methyl (4-(((S)-1-((R)-6-chloro-2-oxo-1,2-dihydrospiro[benzo[d][1,3]oxazine-4,3′-piperidin]-1′-yl)-4-(methylsulfonyl)-1-oxobutan-2-yl)carbamoyl)phenyl)carbamate] | 97.7 | 
28 | COC(=O)Nc1ccc(C(=O)N[C@@H](Cc2ccccc2)C(=O)N2CCC3(C2)NC(=O)Nc2ccc(Cl)cc23)cc1 (single isomer, unassigned) [Example 19a] | 5000 | 
